In US9549941B2, “Compositions and methods for treating hepatitis C virus” (priority 2011, dated 2017):

Experiments:
[1] = system: 1b con-1-based chimeric replicon containing 3a NS5B S282T; assay type: cell-based, hepatitis C virus; conditions: genotype 3a, S282T from corresponding wild-type
Procedure: (§1) (Lam et al., J. Virology (2011) 85(23): 12334-12342; Lam et al., Antimicrob. Agents Chemother. (2012) 56(6): 3359-3368.) S282T mutations in NS5B were created by site-directed mutagenesis in 1a-H77, 1b con-1, and 2a JFH1 sub-genomic replicons. 1b con-1-based chimeric replicons containing 2b, 3a, 4a, 5a, or 6a NS5B were also engineered to harbor the S282T mutation. […] Relative percentages of mutant and WT were assessed by deep sequencing.

[2] = system: 2a JFH1 sub-genomic replicon, NS5B S282T; assay type: cell-based, hepatitis C virus; conditions: genotype 2a, S282T from corresponding wild-type
Procedure: as §1

[3] = system: 1b con-1-based chimeric replicon containing 5a NS5B S282T; assay type: cell-based, hepatitis C virus; conditions: genotype 5a, S282T from corresponding wild-type
Procedure: as §1

HCV GT2 or GT3 = assay: ELECTRON Phase 2a clinical study, treatment-naive GT2/GT3 (Groups 1-6, 10); assay type: in vivo, human; conditions: for HCV RNA (log10 IU/mL), mean: GT2/GT3 Tx-naive, N=10; for HCV RNA below LOD, %: Genotype 2/3 Treatment Naive (Groups 1-6); for % < LOD / n/N < LOD: Groups 1-5, GT2/GT3 Tx-naive
Procedure: In comparison, only 60% of treatment-naïve GT2/GT3 HCV patients receiving GS-7977 monotherapy achieved SVR-12.
Group 1: GS-7977 (400 mg QD) with RBV (1000/1200 mg BID) for 12 weeks (no peginterferon) (GT2/GT3 treatment-naïve); and
Groups 2, 3, 4: GS-7977 (400 mg QD) with RBV (1000/1200 mg BID) for 12 weeks and PEG (180 μg weekly) weeks 1-4 only/PEG (180 μg weekly) weeks 1-8 only/PEG (180 μg weekly) weeks 1-12 (GT2/GT3 treatment-naïve).
In Part 2 of the ELECTRON trial, an additional 30 patients were enrolled in exploratory regimens of GS-7977 monotherapy and abbreviated durations of total therapy with the combination of GS-7977, RBV and PEG:
Group 5: GS-7977 (400 mg QD) monotherapy for 12 weeks (GT2/GT3 treatment-naïve);
Group 6: GS-7977 (400 mg QD) with PEG (180 μg weekly) and RBV (1000/1200 mg BID) for 8 weeks (GT2/GT3 treatment-naïve); and
Group 10: GS-7977 (400 mg QD) with RBV (1000/1200 mg BID) for 8 weeks (GT2/GT3 treatment-naïve); and […]

[4] = ELECTRON adverse events (Groups 1,7,8,9 N=70; Groups 2,3,4 N=30; Group 5 N=10; Group 6 N=10); assay type: in vivo, human; conditions: subjects with event
[5] = system: 1a-H77 sub-genomic replicon, NS5B S282T; assay: microbe, parasite or virus in culture; assay type: cell-based, hepatitis C virus
Procedure: as §1

CC(C)OC(=O)[C@H](C)N[P@](=O)(OC[C@H]1O[C@@H](n2ccc(=O)[nH]c2=O)[C@](C)(F)[C@@H]1O)Oc1ccccc1 [GS-7977, (S)-isopropyl 2-(((S)-(((2R,3R,4R,5R)-5-(2,4-dioxo-3,4-dihydropyrimidin-1(2H)-yl)-4-fluoro-3-hydroxy-4-methyltetrahydrofuran-2-yl)methoxy)(phenoxy)phosphoryl)amino)propanoate]
Fold Change [1]: 3.5 | Fold Change [2]: 2.4 | Fold Change [3]: 14.35 | HCV RNA (log10 IU/mL), mean (HCV GT2 or GT3; D1): 5.74 log10 IU/mL | HCV RNA (log10 IU/mL), mean (HCV GT2 or GT3; D1 (6 hr) after dosing): 5.63 log10 IU/mL | HCV RNA (log10 IU/mL), mean (HCV GT2 or GT3; D1 (12 hr) after dosing): 4.98 log10 IU/mL | HCV RNA (log10 IU/mL), mean (HCV GT2 or GT3; D2): 3.75 log10 IU/mL | HCV RNA (log10 IU/mL), mean (HCV GT2 or GT3; D3): 2.62 log10 IU/mL | HCV RNA (log10 IU/mL), mean (HCV GT2 or GT3; T = 0 (initial screening values)): 6.08 log10 IU/mL | HCV RNA (log10 IU/mL), mean (HCV GT2 or GT3; W1): 1.56 log10 IU/mL | HCV RNA (log10 IU/mL), mean (HCV GT2 or GT3; W2): 1.22 log10 IU/mL | HCV RNA (log10 IU/mL), mean (HCV GT2 or GT3; W3): 1.15 log10 IU/mL | HCV RNA (log10 IU/mL), mean (HCV GT2 or GT3; W4): 1.15 log10 IU/mL | HCV RNA (log10 IU/mL), mean (HCV GT2 or GT3; W5): 1.15 log10 IU/mL | HCV RNA (log10 IU/mL), mean (HCV GT2 or GT3; W6): 1.15 log10 IU/mL | HCV RNA (log10 IU/mL), mean (HCV GT2 or GT3; W7): 1.15 log10 IU/mL | HCV RNA (log10 IU/mL), mean (HCV GT2 or GT3; W8): 1.15 log10 IU/mL | HCV RNA (log10 IU/mL), mean (HCV GT2 or GT3; W9): 1.15 log10 IU/mL | HCV RNA (log10 IU/mL), mean (HCV GT2 or GT3; W10): 1.15 log10 IU/mL | HCV RNA (log10 IU/mL), mean (HCV GT2 or GT3; W11): 1.15 log10 IU/mL | HCV RNA (log10 IU/mL), mean (HCV GT2 or GT3; W12 (end of treatment)): 1.15 log10 IU/mL | HCV RNA (log10 IU/mL), mean (HCV GT2 or GT3; W14 (after 12-week treatment)): 1.66 log10 IU/mL | HCV RNA (log10 IU/mL), mean (HCV GT2 or GT3; W16 (after 12-week treatment)): 2.95 log10 IU/mL | HCV RNA (log10 IU/mL), mean (HCV GT2 or GT3; W20 (after 12-week treatment)): 3.12 log10 IU/mL | HCV RNA (log10 IU/mL), mean (HCV GT2 or GT3; W24 (12 weeks after treatment)): 3.17 log10 IU/mL | HCV RNA below LOD, % (HCV GT2 or GT3; SVR-4): (60) % | HCV RNA below LOD, % (HCV GT2 or GT3; SVR-12): (60) % | HCV RNA below LOD, % (HCV GT2 or GT3; Time 1 wk): (50) % | HCV RNA below LOD, % (HCV GT2 or GT3; Time 2 wks): (80) % | HCV RNA below LOD, % (HCV GT2 or GT3; Time 3 wks): (100) % | HCV RNA below LOD, % (HCV GT2 or GT3; Time 4 wks): (100) % | HCV RNA below LOD, % (HCV GT2 or GT3; Time 8 wks): (100) % | HCV RNA below LOD, % (HCV GT2 or GT3; Time 12 wks): (100) % | % < LOD (HCV GT2 or GT3; SVR-4): 60% | n/N < LOD (HCV GT2 or GT3; SVR-4): 6/10 | % < LOD (HCV GT2 or GT3; SVR-8): 60% | n/N < LOD (HCV GT2 or GT3; SVR-8): 6/10 | % < LOD (HCV GT2 or GT3; SVR-12): 60% | n/N < LOD (HCV GT2 or GT3; SVR-12): 6/10 | % < LOD (HCV GT2 or GT3; SVR-24): 60% | n/N < LOD (HCV GT2 or GT3; SVR-24): 6/10 | % < LOD (HCV GT2 or GT3; Time 0 wks): 0% | % < LOD (HCV GT2 or GT3; Time 4 wks): 100% | n/N < LOD (HCV GT2 or GT3; Time 4 wks): 10/10 | % < LOD (HCV GT2 or GT3; Time 8 wks): 100% | n/N < LOD (HCV GT2 or GT3; Time 8 wks): 10/10 | % < LOD (HCV GT2 or GT3; Time 12 wks): 100% | n/N < LOD (HCV GT2 or GT3; Time 12 wks): 10/10 | SVR-24 (HCV GT2 or GT3; treatment-naive GT2/GT3, 12 weeks GS-7977 400 mg QD): 60% | SVR-12 (HCV GT2 or GT3; treatment-naive GT2/GT3 HCV patients, GS-7977 400 mg QD): 60% | Abdominl Pain: n [4]: 0 | Alopecia: n [4]: 0 | Anemia: n [4]: 0 | Arthralgia: n [4]: 0 | Axillary Pain: % [4]: (20) % | Axillary Pain: n [4]: 2 | Back Pain: % [4]: (10) % | Back Pain: n [4]: 1 | Blood and Lymphatic System Disorders: n [4]: 0 | Chills: n [4]: 0 | Decreased Appetite: n [4]: 0 | Diarrhoea: n [4]: 0 | Dizziness Postural: n [4]: 0 | Dizziness: % [4]: (20) % | Dizziness: n [4]: 2 | Dry Skin: n [4]: 0 | Dyspnoea: n [4]: 0 | Fatigue: % [4]: (30) % | Fatigue: n [4]: 3 | Flatulence: n [4]: 0 | Gastrointestinal Disorders: % [4]: (80) % | Gastrointestinal Disorders: n [4]: 8 | General Disorders and Administration Site Conditions: % [4]: (80) % | General Disorders and Administration Site Conditions: n [4]: 8 | Headache: % [4]: (80) % | Headache: n [4]: 8 | Infections and Infestations: % [4]: (50) % | Infections and Infestations: n [4]: 5 | Injection Site Erythema: n [4]: 0 | Insomnia: % [4]: (60) % | Insomnia: n [4]: 6 | Irritability: % [4]: (10) % | Irritability: n [4]: 1 | Metabolism and Nutrition Disorders: n [4]: 0 | Musculoskeletal and Connective Tissue Disorders: % [4]: (20) % | Musculoskeletal and Connective Tissue Disorders: n [4]: 2 | Myalgia: % [4]: (10) % | Myalgia: n [4]: 1 | Nausea: % [4]: (30) % | Nausea: n [4]: 3 | Nervous System Disorders: % [4]: (90) % | Nervous System Disorders: n [4]: 9 | Oropharyngeal Pain: % [4]: (20) % | Oropharyngeal Pain: n [4]: 2 | Pain: n [4]: 0 | Pruritus: n [4]: 0 | Psychiatric Disorders: % [4]: (60) % | Psychiatric Disorders: n [4]: 6 | Pyrexia: n [4]: 0 | Rash: % [4]: (10) % | Rash: n [4]: 1 | Respiratory, Thoracic and Mediastinal Disorders: % [4]: (30) % | Respiratory, Thoracic and Mediastinal Disorders: n [4]: 3 | Skin and Subcutaneous Tissue Disorders: % [4]: (30) % | Skin and Subcutaneous Tissue Disorders: n [4]: 3 | Upper Respiratory Tract Infection: % [4]: (20) % | Upper Respiratory Tract Infection: n [4]: 2 | ≧1 AE: % [4]: (100) % | ≧1 AE: n [4]: 10 | EC50 ([5]; Hepatitis C virus, read-out: EC50 S282T): 253 nM | Fold Change ([5]; genotype 1a, S282T from corresponding wild-type): 10.1
